This is an account of results in patent publication US7465814B2, “Sulfonate compound and fluorescent probe using the same” (priority 2003, dated 2008).

Series [1] in a line: Tracking fluorescence on reaction with H2O2 (FIG. 1d). Type of series: biochemical. The settings on record: H2O2 40 μM only. The text has this:
This figure is a graph showing results that are obtained by tracking fluorescence by allowing the compound 1d to react with H2O2 or superoxide produced enzymatically, a horizontal axis thereof represents a reaction time (second), and a vertical axis thereof represents a fluorescence intensity (au). In the figure, (a) represents a result obtained by a reaction in the presence of HPX and XO, (b) represents a result obtained by a reaction in the presence of HPX, XO and SOD, (c) represents a result obtained by a reaction under an anaerobic condition in the presence of HPX, XO and SOD, and (d) represents a result obtained by a reaction with only H2O2. The test results shown in FIG. 1 will be described below in further detail.

The nature of series [2]: Quantitativity of fluorescence response in the HPX/XO system, 96-well microplate assay. Type of series: biochemical. Here is the method: According to a 96 wellmicroplate assay, sensitivity and quantitativity of the fluorescence response of the probe (the compound 1d) in the HPX/XO system were tested. Specifically, a DMSO solution of 1d (10 mM) was diluted by 400-fold with HEPES (pH 7.4, 10 mM) so as to prepare a probe solution, and this probe solution (150 μL) was mixed with a HEPES solution of HPX (10 μL) and a HEPES solution of XO (0.26 U/mL, 10 μL), and was allowed to stand still at 37° C. for 10 minutes, and thereafter, a fluorescence intensity was measured. […] A correlation coefficient of this linear calibration curve was 1.000, and an inclination thereof was 0.58 au/pmol.
More specifically, an assay condition was the same as that in the above-described measurement, except providing a DMSO solution of 1d with a concentration of 5 mM, preparing a probe solution by diluting this DMSO solution by 400-fold with HEPES (pH 7.4, 10 mM), and using 180 μL of the probe solution. Fluorescence intensity measurement was conducted by using an ETC-272 Peltier thermostatted single cell holder (trade name) manufactured by JASCO Corporation or a SpectraMax GeminiEM fluorescence plate reader (trade name) manufactured by Molecular Devices Corporation provided with a FP-750 spectrofluorometer (trade name) manufactured by JASCO Corporation. As a result, a detection limit value of the concentration of HPX was 1.0 pmol (RSD, n=8; 2.9%), and a favorable linear calibration curve with a correlation coefficient of 0.9993 and an inclination of 0.80 au/pmol was obtained, with the concentration of HPX ranging from the detection limit value to 2.0 nmol. The inclination of this linear calibration curve is different from that of the above-described measurement, because of using the arbitrary units for the fluorescence intensities and the different measurement apparatuses.

Series [3] is described as follows: Fluorescent response to H2O2 (Table 1). In kind it is biochemical. The settings on record: relative fluorescence intensity, blank = 10; probe 21.3 μM, H2O2 50 μM, 37° C., 10 minutes. The method, then: (§1) Moreover, in other conditions than those of the above-described tests, reactivity of all of the compounds 1a to 1d with H2O2, other various kinds of nucleophilic agents, reducing agents and the like also was tested, respectively. More specifically, fluorescent responses of 1a to 1d with respect to a XO-HPX system, a XO-HPX-SOD system, H2O2, ascorbic acid, 1,4-hydroquinone, propylamine, diethylamine, glucose, esterase, a cytochrome P450 reductase+NADPH system, and a diaphorase+NADH system were measured, respectively. Operational processes thereof will be described below. Firstly, 1a to 1d and the above-described reagents were dissolved in HEPES of 10 mM having a pH of 7.4 so as to prepare solutions, respectively. Next, a 96 wellmicroplate was provided, where any of the solutions of 1a to 1d (25 μM, 170 μL) was poured into each of the wells, and furthermore, 30 μL of a blank solution or 30 μL of the solution of the reagent to be reacted therewith was added thereto. Final concentrations of the solutions in the wells were adjusted so that concentrations of the solutions of 1a to 1d respectively could be 21.3 μM, that of XO could be 13.1 mU/mL, those of HPX, H2O2, ascorbic acid, 1,4-hydroquinone, propylamine, diethylamine, glucose, NADPH and NADH respectively could be 50 μM, that of cytochrome P450 reductase could be 68 mU/mL, that of diaphorase could be 65 mU/mL, and that of esterase could be 0.5 U/mL, respectively. Then, after they reacted in the wells at 37° C. for 10 minutes, fluorescent responses were measured respectively. Fluorescence intensity measurement was conducted by using an ETC-272 Peltier thermostatted single cell holder (trade name) manufactured by JASCO Corporation or a SpectraMax GeminiEM fluorescence plate reader (trade name) manufactured by Molecular Devices Corporation provided with a FP-750 spectrofluorometer (trade name) manufactured by JASCO Corporation, and by setting excitation wavelengths and emission wavelengths so that those of 1a, 1b and 1c respectively could be 485 nm and 515 nm, and those of 1d respectively could be 511 nm and 540 nm.

Series [4] is described as follows: Fluorescent response to ascorbic acid (Table 1). Type of series: biochemical. To be noted: relative fluorescence intensity, blank = 10; probe 21.3 μM, ascorbic acid 50 μM, 37° C., 10 minutes. The method, then:
as §1

A further series has as its system neutrophils. The settings on record: for cell viability after the incubation with respect to before the incubation: 37° C., 120 minutes. The method, then: Moreover, a toxicity of the compound 1d with respect to the neutrophils was evaluated by estimating cell viability by a trypan blue dyeing method. More specifically, the neutrophils (1.0×10^5 cells) were incubated at 37° C. for 120 minutes in a glass test tube coated with human serum albumin, in the presence of both of the compound 1d (6.25 μM) and PMA (0.16 μM), in the presence of either of them, and in the absence of them, respectively. Then, cell viability after the incubation with respect to cell viability before the incubation was measured.

The nature of series [5]: Fluorescent response to propylamine (Table 1). The settings on record: relative fluorescence intensity, blank = 10; probe 21.3 μM, propylamine 50 μM, 37° C., 10 minutes. Type of series: biochemical. Here is the method:
as §1

Like-named read-outs stand apart in the source and are kept apart here.

On to `O=C1OC2(c3ccccc31)c1cc(F)c(OS(=O)(=O)c3ccc([N+](=O)[O-])cc3[N+](=O)[O-])c(F)c1Oc1c2cc(F)c(OS(=O)(=O)c2ccc([N+](=O)[O-])cc2[N+](=O)[O-])c1F` [Compound 1d], for which, in series [1], the “increase of fluorescence intensity with H2O2, FIG. 1(d)” value is “small enough to be neglected”. The “detection limit value of HPX” value in series [2] (10 mM DMSO solution diluted 400-fold, 150 μL probe solution, 37° C., 10 minutes) amounted to 5.0 pmol; in series [2] (different apparatus, 5 mM DMSO solution diluted 400-fold, 180 μL probe solution), 1.0 pmol. In addition, the “inclination of linear calibration curve” value is reported as 0.58 au/pmol in series [2] (10 mM DMSO solution diluted 400-fold, 150 μL, HPX from detection limit to 10.0 nmol) and 0.80 au/pmol in series [2] (different apparatus, 5 mM DMSO solution, 180 μL, HPX from detection limit to 2.0 nmol). The “fluorescent response, H2O2” value in series [3] is listed as 11. Also, the “fluorescent response, ascorbic acid” value in series [4] is 11. For the same compound, the “cell viability after the incubation with respect to before the incubation” value was found to be 97% in the series on neutrophils (in the presence of both 1d (6.25 μM) and PMA (0.16 μM)); 95% in the series with neutrophils (substance only (1d 6.25 μM or PMA 0.16 μM), 1.0×10^5 neutrophils). The “toxicity with respect to the neutrophils” value in the series on neutrophils (incubation of 120 minutes) is listed as “did not show any significant toxicity”. In addition, the “fluorescent response, propylamine” value in series [5] was 10.
